From paper PMC6354023, “A phase I study of the HDM2 antagonist SAR405838 combined with the MEK inhibitor pimasertib in patients with advanced solid tumours” (British Journal of Cancer, 2018)
Read-outs that look alike come from different tables or passages of the source.

Legend:
[1] = cited from earlier work
[2] = Safety assessments: adverse events (NCI-CTCAE v4.03), laboratory abnormalities; assay type: in vivo, human; conditions: of 26 treated patients, in combination
Experimental: Safety was assessed by the evaluation of AEs, DLTs, changes in vital signs, ECOG PS, physical examinations,12-lead electrocardiograms, determination of LVEF, ophthalmological examinations and clinical laboratory tests (including haematology, coagulation, blood chemistry and urinalysis).

MIC-1 = MIC-1 levels in plasma by ELISA; assay type: in vivo, human
Experimental: MIC-1 protein concentrations were measured in plasma samples using an analytically validated enzyme-linked immunosorbent assay (Quantikine® Human GDF-15 immunoassay). pERK levels were determined by evaluating median value changes in response to ex vivo stimulation with or without phorbol myristate acetate (PMA) over time in whole-blood samples (CD 45^+ and lymphocyte populations) by flow cytometry (BD FACSCanto™ II instrument). Stimulated pERK levels were calculated as percentage (PMA-dimethylsulphoxide [DMSO])/DMSO).

[3] = Pharmacokinetics of SAR405838 (whole-blood concentrations) in combination; assay type: in vivo, human; conditions: for AUC(0-t) / Cmax / half-life / Tmax: human, whole blood, oral; for AUC(0-t): read-out: SAR405838 AUC0–24, mean ± SD; for Cmax: read-out: SAR405838 Cmax, mean ± SD; for half-life: read-out: SAR405838 t1/2 (converted); for Tmax: read-out: SAR405838 tmax, median (range)
From the text: Blood samples were collected on Days 1 (for pimasertib only), 2, 3, 8 and 15 of Cycle 1, on Days 1 and 2 of Cycle 2, and on Day 1 of Cycles 3 and 4, to determine the whole-blood and plasma concentrations of SAR405838 and pimasertib, respectively.

[4] = DL1 SAR405838 200 mg QD + pimasertib 45 mg BID, C1D2
[5] = DL1 SAR405838 200 mg QD + pimasertib 45 mg BID, C2D1
[6] = DL2a SAR405838 200 mg QD + pimasertib 60 mg QD, C1D2
[7] = DL2a SAR405838 200 mg QD + pimasertib 60 mg QD, C2D1
[8] = DL2b SAR405838 300 mg QD + pimasertib 45 mg BID, C1D2
[9] = DL2b SAR405838 300 mg QD + pimasertib 45 mg BID, C2D1
[10] = DL3a SAR405838 300 mg QD + pimasertib 60 mg QD, C1D2
[11] = DL3a SAR405838 300 mg QD + pimasertib 60 mg QD, C2D1

In the case of `CC(C)(C)C[C@@H]1N[C@@H](C(=O)N[C@H]2CC[C@H](O)CC2)[C@H](c2cccc(Cl)c2F)[C@]12C(=O)Nc1cc(Cl)ccc12` [SAR405838], the “Main dose-limiting toxicity, monotherapy” value [1] is given as “thrombocytopenia”, the “MTD and recommended phase II dose, monotherapy” value ([1]; once daily (QD)) is given as 300 mg and the “Patients with dose modification, reduction or omission” value [2] is given as 17 patients. The “Time of peak MIC-1 elevation” value (MIC-1; C1D2 and C2D1) was 6 h, the “Greatest increase in MIC-1 in the DL1 cohort” value (MIC-1; patient with confirmed PR (endometrial tumour)) was 8.8 fold and the “MIC-1 elevation, mean vs baseline” value (MIC-1; plasma, all patients at C1D2 and C2D1) was 3.5+ /− 0.8 fold. For the same compound, the “PK in combination compared with PK as monotherapy” value ([3]; SAR405838 and pimasertib administered in combination) was “similar”, the “Exposure change with dose increase (50%)” value ([3]; between DL1/DL2a (SAR405838 200 mg) and DL2b/DL3a (SAR405838 300 mg)) was “did not result in SAR405838 exposure increase” and the AUC(0-t) [3, 4] was 19300 ng·h/mL. It also gave a Cmax [3, 4] of 1570 ± 876 ng/mL, a half-life [3, 4] of 16.1 ± 7.75 h and a Tmax [3, 4] of 2 h. It also gave an AUC(0-t) [3, 5] of 14600 ng·h/mL, a Cmax [3, 5] of 1250 ± 668 ng/mL and a half-life [3, 5] of 10.8 h. It also gave a Tmax [3, 5] of 1.8 h, an AUC(0-t) [3, 6] of 20800 ng·h/mL and a Cmax [3, 6] of 1500 ± 634 ng/mL. The half-life [3, 6] was 8.86 h, the Tmax [3, 6] was 2 h and the AUC(0-t) [3, 7] was 15600 ng·h/mL. The Cmax [3, 7] was 1050 ± 581 ng/mL, the half-life [3, 7] was 10 h and the Tmax [3, 7] was 2.8 h. The AUC(0-t) [3, 8] was 16300 ng·h/mL, the Cmax [3, 8] was 1100 ± 547 ng/mL and the half-life [3, 8] was 15.5 ± 4.33 h. It also gave a Tmax [3, 8] of 3 h, an AUC(0-t) [3, 9] of 15000 ng·h/mL and a Cmax [3, 9] of 1100 ± 361 ng/mL. The half-life [3, 9] was 13.4 ± 2.38 h, the Tmax [3, 9] was 1.5 h and the AUC(0-t) [3, 10] was 21400 ng·h/mL. It also gave a Cmax [3, 10] of 1490 ± 939 ng/mL, a half-life [3, 10] of 13.3 ± 4.94 h and a Tmax [3, 10] of 4 h. It also gave an AUC(0-t) [3, 11] of 21200 ng·h/mL, a Cmax [3, 11] of 1440 ± 583 ng/mL and a half-life [3, 11] of 14.9 ± 11.1 h. For the same compound, the Tmax [3, 11] was 2 h.
